Assays:
Assay type in all cases: in vivo
[1] = tested on: Botrytis cinerea; test: Use Example 2: activity against gray mold on bell pepper leaves caused by Botrytis cinerea, protective application; details: 250 ppm, rated after 5 days, untreated plants 90% infected
Method: (§1) For the use examples 1 to 5 the active compounds were prepared separately as a stock solution with 0.25% by weight of active compound in acetone or DMSO. 1% by weight of the emulsifier Wettol® EM 31 (wetting agent having emulsifying and dispersing action based on ethoxylated alkylphenols) was added to this solution, and the solution was diluted with water to the desired concentration.
Bell pepper leaves of the cultiva “Neusiedler Ideal Elite” were, after 2 to 3 leaves had become well developed, sprayed to runoff point with an aqueous suspension having the concentration of active compounds stated below. The next day, the treated plants were inoculated with an aqueous spore suspension of Botrytis cinerea in a 2% aqueous biomalt solution having a density of 1.7×10^6 spores/ml. The plants were then placed in a climatized chamber at temperatures between 22 and 24° C. and at high atmospheric humidity. After 5 days, the extent of the fungal infection was determined visually by the infected leaf area.

[2] = tested on: Alternaria solani; test: Use Example 1: activity against early blight caused by Alternaria solani (tomato plants); details: 250 ppm, tomato plants sprayed one day before infection, rated after 5 days; untreated plants 90% infected
[3] = tested on: Erysiphe [syn. Blumeria] graminis forma specialis. tritici; test: Use Example 3: activity against mildew of wheat caused by Erysiphe [syn. Blumeria] graminis forma specialis tritici; details: 250 ppm, wheat seedlings, protective, rated after 7 days; untreated plants 90% infected
Method: as §1
Leaves of potted wheat seedlings of the cultiva “Kanzler” were sprayed to runoff point with an aqueous suspension having the concentration of active compounds stated below. 24 h after the spray coating had dried on, the leaves were dusted with the spores of mildew of wheat (Erysiphe [syn. Blumeria] graminis form a specialis. tritici). The plants were then placed in a greenhouse at temperatures between 20 and 24° C. and at 60-90% relative atmospheric humidity. After 7 days, the extent of the fungal infection was determined visually by the infected leaf area.

[4] = tested on: Plasmopara viticola; test: Use Example 4: activity against peronospora of grapevines caused by Plasmopara viticola; details: 63 ppm, potted grapevines, protective; untreated plants 90% infected
Method: as §1
Leaves of potted grapevines were sprayed to runoff point with an aqueous suspension having the concentration of active compounds stated below. The next day, the undersides of the leaves were inoculated with an aqueous sporangia suspension of Plasmopara viticola. The plants were then initially placed in a water-vapor-saturated chamber for 48 h and then in a greenhouse at temperatures between 20 and 30° C. After this period of time, the plants were, to promote sporangial eruption, again placed in the water-vapor-saturated chamber for 16 h. The extent of the development of the infection on the undersides of the leaves was then determined.

[5] = tested on: Puccinia recondita; test: Use Example 5: curative activity against brown rust of wheat caused by Puccinia recondita; details: 250 ppm, wheat seedlings, curative (sprayed one day after inoculation), 7 days; untreated plants 90% infected
Method: as §1
Leaves of potted wheat seedlings of the cultivar “Kanzler” were inoculated with a spore suspension of brown rust (Puccinia recondita). The pots were then placed in a chamber at high atmospheric humidity (90 to 95%) and 20 to 22° C. for 24 hours. During this time, the spores germinated and the germ tubes penetrated into the leaf tissue. The next day, the infected plants were sprayed to runoff point with an aqueous suspension having the active compound concentration stated below. The suspension or emulsion had been prepared as described above. After the spray coating had dried, the test plants were cultivated in a greenhouse at temperatures between 20 and 22° C. and at 65 to 70% relative atmospheric humidity for 7 days. The extent of the rust fungus development on the leaves was then determined.

SMILES	infection (infected leaf area) [1]	infection [2]	infection (infected leaf area) [3] [%]	infection [4]	infection (rust fungus development) [5] [%]
Fc1ccc(-c2cccc(-c3ncc4c(n3)CCCCC4)n2)cc1 [Example 7]	no infection	no infection	20	no infection	–
Cc1ccc(-c2ncc3c(n2)CCCCC3)nc1-c1ccccc1 [Example 1, 2-(5-methyl-6-phenylpyridin-2-yl)-6,7,8,9-tetrahydro-5H-cycloheptapyrimidine]	–	no infection	–	–	–
Cc1ccc(-c2ncc3c(n2)CCCC3)nc1-c1ccc(F)cc1 [2-(5-methyl-6-(4-fluorophenyl)pyridin-2-yl)-5,6,7,8-tetrahydroquinazoline, reference compound]	–	80%	80	70%	50
Cc1ccc(-c2ncc3c(n2)CCCCC3)nc1-c1ccc(F)cc1 [Example 9]	–	no infection	–	–	20
c1ccc(-c2cccc(-c3ncc4c(n3)CCCCCC4)n2)cc1 [Example 11]	no infection	no infection	–	–	–
Cc1ccc(-c2ncc3c(n2)CCCCC3)nc1-c1ccccc1 [Example 6]	no infection	–	–	–	–

Source: patent US7786043B2, “2-(pyridin-2-yl)-pyrimidines and their use for controlling harmful fungi” (BASF Aktiengesellschaft, priority 2004, dated 2010)
